Reference: US10071984B2, “Histone demethylase inhibitors” (Celgene Quanticel Research, Inc., priority 2014, dated 2018)

Key:
Type in all cases: biochemical
PHF8 = PHF8 (Homo sapiens (Human), UniProt Q9UPP1); test: PHF8 in vitro enzyme inhibition assay (TR-FRET); conditions: 3 nM PHF8, H3K9me1-biotin peptide
Source text: (§1) This assay determines the ability of a test compound to inhibit FBXL11, FBXL10, and PHF8 demethylase activity. Baculovirus expressed FBXL11 (GenBank Accession #NM_012308, AA1-1162) was purchased from BPS Bioscience (Cat#50102). Baculovirus expressed FBXL10 (GenBank Accession #NM_032590, AA 1-650) was purchased from BPS Bioscience (Cat #50120). Baculovirus expressed PHF8 (GenBank Accession NP_055922.1) was purchased from Active Motif (Cat#31435).
The ability of test compounds to inhibit the activity of PHF8 was determined in 384-well plate format under the following reaction conditions: 3 nM PHF8, 200 nM H3K9me1-biotin labeled peptide (Anaspec cat #64358), 0.5 μM alpha-ketoglutaric acid in assay buffer of 50 mM HEPES, pH7.3, 0.005% Brij35, 0.5 mM TCEP, 0.2 mg/ml BSA, 50 μM sodium L-ascorbate, and 5 μM ammonium iron(II) sulfate. Reaction product was determined quantitatively by TR-FRET after the addition of detection reagent Phycolink Streptavidin-allophycocyanin (Prozyme) and Europium-anti-unmodified-histone H3 lysine 9/lysine27 (H3K9/K27) antibody (PerkinElmer) in the presence of 5 mM EDTA in LANCE detection buffer (PerkinElmer) at a final concentration of 25 nM and 0.5 nM, respectively.
The assay reaction was initiated by the following: 2 μl of the mixture of 600 nM H3K9me1-biotin labeled peptide and 1.5 μM alpha-ketoglutaric acid with 2 μl of 11-point serial diluted inhibitor in 3% DMSO were added to each well of the plate, followed by the addition of 2 μl of 9 nM PHF8 to initiate the reaction. The reaction mixture was incubated at room temperature for 15 minutes, and terminated by the addition of 6 μl of 5 mM EDTA in LANCE detection buffer containing 50 nM Phycolink Streptavidin-allophycocyanin and 1 nM Europium-anti-unmodified H3K9/K27 antibody. Plates were read by EnVision Multilabel Reader in TR-FRET mode (excitation at 320 nm, emission at 615 nm and 665 nm) after 1 hour incubation at room temperature. A ratio was calculated (665/615) for each well and fitted to determine inhibition constant (IC50).
(§2) The ability of the compounds disclosed herein to inhibit demethylase activity was quantified and the respective IC50 value was determined.

FBXL10 = FBXL10 (Homo sapiens (Human), UniProt Q8NHM5); test: FBXL10 in vitro enzyme inhibition assay (AlphaScreen); conditions: 0.3 nM FBXL10, H3K36me2-biotin peptide
Chain of FBXL10 (Q8NHM5 1-650): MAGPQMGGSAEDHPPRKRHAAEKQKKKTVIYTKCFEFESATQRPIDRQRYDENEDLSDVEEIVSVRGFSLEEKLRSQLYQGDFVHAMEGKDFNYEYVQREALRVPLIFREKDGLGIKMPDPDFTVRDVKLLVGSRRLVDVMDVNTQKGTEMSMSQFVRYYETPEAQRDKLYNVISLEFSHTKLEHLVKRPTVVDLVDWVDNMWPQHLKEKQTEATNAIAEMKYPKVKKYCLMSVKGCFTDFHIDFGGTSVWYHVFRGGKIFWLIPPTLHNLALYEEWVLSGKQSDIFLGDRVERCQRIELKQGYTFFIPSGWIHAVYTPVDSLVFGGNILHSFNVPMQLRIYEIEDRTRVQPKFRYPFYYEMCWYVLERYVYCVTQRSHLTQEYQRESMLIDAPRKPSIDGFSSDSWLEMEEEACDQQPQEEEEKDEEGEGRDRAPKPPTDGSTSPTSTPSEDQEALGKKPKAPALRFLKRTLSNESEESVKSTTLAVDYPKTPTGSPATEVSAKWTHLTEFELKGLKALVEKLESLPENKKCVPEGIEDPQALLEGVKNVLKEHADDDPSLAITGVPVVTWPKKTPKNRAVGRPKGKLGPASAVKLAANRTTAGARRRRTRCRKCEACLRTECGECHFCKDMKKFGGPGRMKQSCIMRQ
Source text: as §1
(§3) The ability of test compounds to inhibit the activity of FBXL10 was determined in 384-well plate format under the following reaction conditions: 0.3 nM FBXL10, 30 nM H3K36me2-biotin labeled peptide (Anaspec cat #64442), 0.2 μM alpha-ketoglutaric acid in assay buffer of 50 mM HEPES, pH7.3, 0.005% Brij35, 0.5 mM TCEP, 0.2 mg/ml BSA, 50 μM sodium L-ascorbate, 5 μM ammonium iron(II) sulfate. Reaction product is determined quantitatively by AlphaScreen detection after the addition of detection reagents anti-H3K36me1 antibody, AlphaScreen® Streptavidin-coated Donor beads, and AlphaScreen® Protein A Acceptor beads in 50 mM HEPES, pH7.3, 10 mM NaCl, 0.005% Brij35, 5 mM EDTA, 2 mg/ml BSA to final 10 μg/ml beads.
(§4) The assay reaction was initiated by the following: 3 μl of the mixture of 90 nM H3K36me2-biotin labeled peptide and 0.6 μM alpha-ketoglutaric acid with 3 μl of 11-point serial diluted inhibitor in 3% DMSO are added to each well of 384 well Proxiplate (Perkin Elmer), followed by the addition of 3 μl of 0.9 nM FBXL10 to initiate the reaction. The reaction mixture is incubated at room temperature for 1 hour, and terminated by the addition of 3 μl of appropriate dilution of anti H3K36me1 antibody in 50 mM HEPES, pH7.3, 10 mM NaCl, 0.005% Brij35, 5 mM EDTA, 2 mg/ml BSA. Plates will then incubated at room temperature for 40 minutes, followed by addition of 3 ul of 50 μg/ml AlphaScreen® Streptavidin-coated Donor beads and AlphaScreen® Protein A Acceptor beads in 50 mM HEPES, pH7.3, 10 mM NaCl, 0.005% Brij35, 5 mM EDTA, 2 mg/ml BSA. Plates will then be read by EnVision Multilabel Reader in AlphaScreen mode after minimum 2 hour incubation at room temperature. The AlphaScreen signal for each well is used to determine inhibition constant (IC50).
as §2

FBXL11 = FBXL11 (Homo sapiens (Human), UniProt Q9Y2K7); test: FBXL11 in vitro enzyme inhibition assay (AlphaScreen); conditions: 0.15 nM FBXL11, H3K36me2-biotin peptide
Chain of FBXL11 (Q9Y2K7 whole entry): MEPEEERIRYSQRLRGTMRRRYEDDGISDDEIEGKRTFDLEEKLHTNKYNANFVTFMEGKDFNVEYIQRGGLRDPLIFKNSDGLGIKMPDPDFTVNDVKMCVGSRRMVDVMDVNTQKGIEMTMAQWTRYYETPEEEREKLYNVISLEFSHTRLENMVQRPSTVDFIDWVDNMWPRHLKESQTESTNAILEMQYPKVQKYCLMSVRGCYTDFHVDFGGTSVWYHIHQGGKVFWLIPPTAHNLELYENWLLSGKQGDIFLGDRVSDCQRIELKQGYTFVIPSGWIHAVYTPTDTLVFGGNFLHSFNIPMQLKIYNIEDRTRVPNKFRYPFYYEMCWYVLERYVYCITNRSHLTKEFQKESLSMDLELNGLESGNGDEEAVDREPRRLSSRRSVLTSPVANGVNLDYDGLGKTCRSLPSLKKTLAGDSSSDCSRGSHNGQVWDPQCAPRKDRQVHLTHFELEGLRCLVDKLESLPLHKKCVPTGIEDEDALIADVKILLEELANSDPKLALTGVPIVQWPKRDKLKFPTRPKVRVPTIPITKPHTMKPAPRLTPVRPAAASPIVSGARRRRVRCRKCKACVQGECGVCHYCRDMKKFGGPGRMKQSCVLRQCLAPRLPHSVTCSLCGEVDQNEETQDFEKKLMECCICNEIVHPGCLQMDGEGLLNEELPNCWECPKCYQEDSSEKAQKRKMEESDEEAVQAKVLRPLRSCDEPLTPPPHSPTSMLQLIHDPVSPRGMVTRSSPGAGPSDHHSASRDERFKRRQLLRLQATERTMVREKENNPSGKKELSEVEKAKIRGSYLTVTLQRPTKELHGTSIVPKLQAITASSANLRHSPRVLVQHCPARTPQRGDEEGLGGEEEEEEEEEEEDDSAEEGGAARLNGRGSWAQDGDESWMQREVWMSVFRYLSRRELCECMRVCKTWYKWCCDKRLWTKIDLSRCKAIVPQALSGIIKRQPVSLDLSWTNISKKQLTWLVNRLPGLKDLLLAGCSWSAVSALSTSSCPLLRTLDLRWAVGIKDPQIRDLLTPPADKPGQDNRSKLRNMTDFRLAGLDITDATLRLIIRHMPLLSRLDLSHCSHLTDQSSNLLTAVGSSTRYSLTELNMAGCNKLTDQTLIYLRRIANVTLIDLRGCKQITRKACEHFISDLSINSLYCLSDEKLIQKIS
Source text: as §1
as §3, with “FBXL11” for “FBXL10”, “0.15” for “0.3”, “FBXL11,” for “FBXL10,”
as §4, with “0.45” for “0.9”, “FBXL11” for “FBXL10”
The ability of the compounds disclosed herein to inhibit demethylase activity was quantified and the respective IC50 value was determined. Table 3 provides the IC50 values of various compounds disclosed herein.

Chain of PHF8 (Q9UPP1 37-1060): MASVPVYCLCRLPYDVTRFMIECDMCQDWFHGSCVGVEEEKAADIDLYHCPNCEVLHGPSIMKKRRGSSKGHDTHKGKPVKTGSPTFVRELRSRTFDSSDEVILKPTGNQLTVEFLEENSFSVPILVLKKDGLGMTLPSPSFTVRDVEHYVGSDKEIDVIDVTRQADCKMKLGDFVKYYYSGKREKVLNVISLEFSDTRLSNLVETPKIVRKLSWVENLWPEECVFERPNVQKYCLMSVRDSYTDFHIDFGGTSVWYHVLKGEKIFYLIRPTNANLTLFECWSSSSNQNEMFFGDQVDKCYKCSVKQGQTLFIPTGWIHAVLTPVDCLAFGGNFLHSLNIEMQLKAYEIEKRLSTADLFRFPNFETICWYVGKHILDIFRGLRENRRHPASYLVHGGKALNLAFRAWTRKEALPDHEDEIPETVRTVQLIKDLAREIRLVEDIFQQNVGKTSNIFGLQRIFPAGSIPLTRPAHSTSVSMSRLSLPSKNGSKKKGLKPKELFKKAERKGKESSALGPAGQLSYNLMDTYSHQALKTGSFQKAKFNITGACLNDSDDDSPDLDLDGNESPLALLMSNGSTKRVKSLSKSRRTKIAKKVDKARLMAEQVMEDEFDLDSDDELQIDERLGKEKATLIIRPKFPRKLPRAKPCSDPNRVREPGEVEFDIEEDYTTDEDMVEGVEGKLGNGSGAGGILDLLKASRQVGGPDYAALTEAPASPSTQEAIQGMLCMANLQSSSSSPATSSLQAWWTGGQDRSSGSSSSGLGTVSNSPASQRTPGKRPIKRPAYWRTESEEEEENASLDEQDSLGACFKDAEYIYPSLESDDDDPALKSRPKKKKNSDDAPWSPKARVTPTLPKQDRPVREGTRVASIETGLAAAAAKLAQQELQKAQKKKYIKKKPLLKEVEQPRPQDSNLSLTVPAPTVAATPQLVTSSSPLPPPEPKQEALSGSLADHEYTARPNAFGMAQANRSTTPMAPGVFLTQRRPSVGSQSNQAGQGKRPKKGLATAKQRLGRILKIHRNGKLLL

| IC50 (PHF8) | IC50 (FBXL10) | IC50 (FBXL11) | SMILES |
| --- | --- | --- | --- |
| 100 to 1000 nM | ≤ 100 nM | ≤ 100 nM | CCOc1ccccc1CCn1cnc(-c2cc(-c3c[nH]nn3)ccn2)c1 [Example 9, 2-[1-[2-(2-ethoxyphenyl)ethyl]imidazol-4-yl]-4-(1H-triazol-4-yl)pyridine] |
| 100 to 1000 nM | ≤ 100 nM | ≤ 100 nM | FC(F)(F)c1cccc(Cn2cnc(-c3cc(-c4c[nH]nn4)ccn3)c2)c1Cl [Example 22, 2-[1-[[2-chloro-3-(trifluoromethyl)phenyl]methyl]imidazol-4-yl]-4-(1H-triazol-4-yl)pyridine] |
| > 10000 nM | ≤ 100 nM |  | FC(F)(F)c1[nH]nnc1-c1ccnc(-c2cn(CCc3cccc4ccccc34)cn2)c1 [Example 37, 2-[1-(2-naphthalen-1-ylethyl)imidazol-4-yl]-4-[5-(trifluoromethyl)-1H-triazol-4-yl]pyridine] |
| 100 to 1000 nM | ≤ 100 nM | 100 to 1000 nM | Clc1ccccc1Cn1cnc(-c2cc(-c3c[nH]nn3)ccn2)c1 [Example 2, 2-[1-[(2-chlorophenyl)methyl]imidazol-4-yl]-4-(1H-triazol-4-yl)pyridine] |
| 1000 to 10000 nM | ≤ 100 nM |  | c1ccc(COc2ccccc2CCn2cnc(-c3cc(-c4c[nH]nn4)ccn3)c2)cc1 [Example 17, 2-[1-[2-(2-phenylmethoxyphenyl)ethyl]imidazol-4-yl]-4-(1H-triazol-4-yl)pyridine] |
| > 10000 nM | ≤ 100 nM |  | Ic1[nH]nnc1-c1ccnc(-c2cn(CCc3cccc4ccccc34)cn2)c1 [Example 38, 4-(5-iodo-1H-triazol-4-yl)-2-[1-(2-naphthalen-1-ylethyl)imidazol-4-yl]pyridine] |
| ≤ 100 nM | ≤ 100 nM |  | Fc1c(Cl)cccc1Cn1cnc(-c2cc(-c3c[nH]nn3)ccn2)c1 [Example 29, 2-[1-[(3-chloro-2-fluorophenyl)methyl]imidazol-4-yl]-4-(1H-triazol-4-yl)pyridine] |
| 1000 to 10000 nM | ≤ 100 nM |  | N#Cc1[nH]nnc1-c1ccnc(-c2cn(Cc3ccccc3Cl)cn2)c1 [Example 13, 4-[2-[1-[(2-chlorophenyl)methyl]imidazol-4-yl]pyridin-4-yl]-1H-triazole-5-carbonitrile] |

The remaining lines, values behind:

| SMILES | IC50 (PHF8) | IC50 (FBXL10) | IC50 (FBXL11) |
| --- | --- | --- | --- |
| Clc1cccc(Cn2cnc(-c3cc(-c4c[nH]nn4)ccn3)c2)c1Cl [Example 21, 2-[1-[(2,3-dichlorophenyl)methyl]imidazol-4-yl]-4-(1H-triazol-4-yl)pyridine] | 100 to 1000 nM | ≤ 100 nM | ≤ 100 nM |
| COc1ccccc1CCn1cnc(-c2cc(-c3c[nH]nn3)ccn2)c1 [Example 7, 2-[1-[2-(2-methoxyphenyl)ethyl]imidazol-4-yl]-4-(1H-triazol-4-yl)pyridine] | 100 to 1000 nM | ≤ 100 nM | ≤ 100 nM |
| CCOc1cc(-c2c(-c3cc(-c4c[nH]nn4)ccn3)ncn2C)ccc1F [Example 25, 2-[5-(3-ethoxy-4-fluorophenyl)-1-methylimidazol-4-yl]-4-(1H-triazol-4-yl)pyridine] | 1000 to 10000 nM | ≤ 100 nM | 100 to 1000 nM |
| COc1cc(-c2c(-c3cc(-c4c[nH]nn4)ccn3)ncn2C)ccc1F [Example 24, 2-[5-(4-fluoro-3-methoxyphenyl)-1-methylimidazol-4-yl]-4-(1H-triazol-4-yl)pyridine] | 100 to 1000 nM | ≤ 100 nM |  |
| COc1cccc(Cn2cnc(-c3cc(-c4c[nH]nn4)ccn3)c2)c1F [Example 30, 2-[1-[(2-fluoro-3-methoxyphenyl)methyl]imidazol-4-yl]-4-(1H-triazol-4-yl)pyridine] | 100 to 1000 nM | ≤ 100 nM |  |
| FC(F)(F)c1ccccc1CCn1cnc(-c2cc(-c3c[nH]nn3)ccn2)c1 [Example 31, 4-(1H-triazol-4-yl)-2-[1-[2-[2-(trifluoromethyl)phenyl]ethyl]imidazol-4-yl]pyridine] | 100 to 1000 nM | ≤ 100 nM |  |
| Clc1[nH]nnc1-c1ccnc(-c2cn(CCc3cccc4ccccc34)cn2)c1 [Example 36, 4-(5-chloro-1H-triazol-4-yl)-2-[1-(2-naphthalen-1-ylethyl)imidazol-4-yl]pyridine] | 1000 to 10000 nM | ≤ 100 nM |  |
| Clc1cccc(Cn2cnc(-c3cc(-c4nn[nH]c4I)ccn3)c2)c1Cl [Example 19, 2-[1-[(2,3-dichlorophenyl)methyl]imidazol-4-yl]-4-(5-iodo-1H-triazol-4-yl)pyridine] | 100 to 1000 nM | ≤ 100 nM |  |
| c1ccc2c(c1)OCCC2Cn1cnc(-c2cc(-c3c[nH]nn3)ccn2)c1 (stereo not shown) [Example 12, 2-[1-(3,4-dihydro-2H-chromen-4-ylmethyl)imidazol-4-yl]-4-(1H-triazol-4-yl)pyridine] | ≤ 100 nM | ≤ 100 nM |  |
| N#Cc1[nH]nnc1-c1ccnc(-c2cn(CCc3cccc4ccccc34)cn2)c1 [Example 16, 4-[2-[1-(2-naphthalen-1-ylethyl)imidazol-4-yl]pyridin-4-yl]-1H-triazole-5-carbonitrile] | 100 to 1000 nM | ≤ 100 nM |  |
| Cn1cnc(-c2cc(-c3c[nH]nn3)ccn2)c1-c1ccc(F)cc1 [Example 3, 2-[5-(4-fluorophenyl)-1-methylimidazol-4-yl]-4-(1H-triazol-4-yl)pyridine] | 100 to 1000 nM | ≤ 100 nM |  |
| CC(C)(Cn1cnc(-c2cc(-c3c[nH]nn3)ccn2)c1)c1ccccc1Cl [Example 32, 2-[1-[2-(2-chlorophenyl)-2-methylpropyl]imidazol-4-yl]-4-(1H-triazol-4-yl)pyridine] | 100 to 1000 nM | ≤ 100 nM |  |
